Experimental data from patent EP1080070B1, “ANTIANGIOGENIC DRUG TO TREAT CANCER, ARTHRITIS AND RETINOPATHY” (ABBOTT LABORATORIES, priority 1998, dated 1999).
Structures can show the parent of a compound that is named as a salt.

test system: Human Microvascular Endothelial Cells (HMVEC); experiment: Endothelial cell migration assay (modified Boyden chamber, bFGF-stimulated); assay type: cell-based; conditions: Homo sapiens, HMVEC; 200 nM test compound; bFGF in upper chamber, 4 hours at 37 °C; percent inhibition of migration compared to a positive control
Description: The endothelial cell migration assay was performed essentially as described by Polverini, P.J. et al., Methods Enzymol, 198: 440-450 (1991). Briefly, Human Microvascular Endothelial Cells (HMVEC) were starved overnight in DMEM containing 0.1% bovine serum albumin (BSA). Cells were then harvested with trypsin and resuspended in DMEM with 0.1% BSA at a concentration of 1.5 x 10^6 cells/mL. Cells were added to the bottom of a 48-well modified Boyden chamber (Nucleopore Corporation, Cabin John, MD). The chamber was assembled and inverted, and cells were allowed to attach for 2 hours at 37 °C to polycarbonate chemotaxis membranes (5 µm pore size) that had been soaked in 0.1% gelatin overnight and dried. The chamber was then reinverted and basic fibroblast growth factor (bFGF) and test substances were added to the wells of the upper chamber (to a total volume of 50 µL); the apparatus was then incubated for 4 hours at 37 °C. Membranes were recovered, fixed and stained (DiffQuick, Fisher Scientific, Pittsburgh, PA) and the number of cells that had migrated to the upper chamber per 10 high power fields were counted. Background migration to DMEM +0.1% BSA was subtracted and the data reported as the number of cells migrated per 10 high power fields (400X) or when results from multiple experiments were combined, as the percent inhibition of migration compared to a positive control.

Structure (SMILES)	inhibition at 0.2 µM
COC(=O)c1ccc(NC(=O)[C@@H](CCCCN)NC(=O)OC(C)(C)C)cc1-c1cccc(O)c1 [Example 9, (R)-methyl 4-[[6-amino-2-[[(1,1-dimethylethoxy)carbonyl]amino]-1-oxohexyl]amino]-2-(3-hydroxyphenyl)benzoate]	> 95%
COC(=O)c1ccc(NC(=O)[C@H](CCCCN)NC(C)=O)cc1-c1cccc(O)c1 [Example 14, (S)-methyl 4-[[2-(acetylamino)-6-amino-1-oxohexyl]amino]-2-(3-hydroxyphenyl)benzoate]	60%
CC(=O)N[C@@H](CCCCN)C(=O)Nc1ccc(C(=O)O)c(-c2cccc(O)c2)c1 [Example 15, (S)-4-[[2-(acetylamino)-6-amino-1-oxohexyl)amino]-2-(3-hydroxyphenyl)benzoic acid]	64%
CC(=O)NC(CCCCN)C(=O)Nc1ccc(C(=O)N[C@@H](CC(=O)O)C(N)=O)c(-c2cccc(O)c2)c1 (stereo partly drawn) [Example 16, (S)-N-[4-[[2-(acetylamino)-6-amino-1-oxohexyl]amino]-2-(3-hydroxyphenyl)benzoyl]-L-α-asparagine]	86%
CC(C)(C)OC(=O)C[C@H](NC(=O)Cc1ccc(N)cc1)C(=O)OC(C)(C)C [Example 19, N-[(4-aminophenyl)acetyl]-L-aspartic acid bis(1,1-dimethylethyl) ester]	32%
CCOC(=O)Cc1ccc(NC(=O)[C@H](CCCCN)NC(=O)OC(C)(C)C)cc1 [Example 25, (S)-ethyl 4-[[6-amino-2-[[(1,1-dimethylethoxy)carbonyl]amino]-1-oxohexyl]amino]benzeneacetate monohydrochloride]	38%
COC(=O)c1ccc(NC(=O)[C@H](CCCCN)NC(=O)OC(C)(C)C)cc1-c1ccc(O)cc1 [Example 27, methyl 5-(((2S)-6-amino-2-((tert-butoxycarbonyl)amino)hexanoyl)amino)-4'-hydroxy(1,1'-biphenyl)-2-carboxylate]	28%
CC(=O)N[C@@H](CCCCN)C(=O)Nc1ccc(C(=O)N[C@@H](CC(=O)O)C(N)=O)c(-c2ccc(O)cc2)c1 [Example 28, (3S)-3-(((5-(((2S)-2-(acetylamino)-6-aminohexanoyl)amino)-4'-hydroxy(1,1'-biphenyl)-2-yl)carbonyl)amino)-4-amino-4-oxobutanoic acid]	59%
CC(C)(C)OC(=O)N[C@@H](CCCCN)C(=O)Nc1ccc(C(=O)O)c(-c2cccc(O)c2)c1 [Example 31, 5-(((2S)-6-amino-2-((tert-butoxycarbonyl)amino)hexanoyl)amino)-3'-hydroxy(1,1'-biphenyl)-2-carboxylic acid]	> 95%

same assay, conditions: bFGF in upper chamber, 4 hours at 37 °C, percent inhibition of migration compared to a positive control

Structure (SMILES)	% inhibition at 200 nM test compound
COC(=O)c1ccc(NC(=O)[C@@H](CCCCN)NC(=O)OC(C)(C)C)cc1-c1ccccc1O [Example 10, (R)-methyl 4-[[6-amino-2-[[(1,1-dimethylethoxy)carbonyl]amino]-1-oxohexyl]amino]-2-(2-hydroxypheal)benzoate]	80%
COC(=O)c1ccc(NC(=O)[C@H](CCCCNC(=O)OCc2ccccc2)NC(C)=O)cc1-c1cccc(OCc2ccccc2)c1 [Example 12, (S)-methyl 4-[[2-(acetylamino)-6-[[(phenylmethoxy)carbonyl]amino]-1-oxohexyl]amino]2-[(3-(phenylmethoxy)phenyl benzoate]	29%
CC(=O)NC(CCCCN)C(=O)Nc1ccc(C(=O)N[C@@H](CC(N)=O)C(=O)O)c(-c2ccccc2)c1 (some centres unmarked) [Example 17]	>95%
CC(=O)NC(CCCCN)C(=O)Nc1ccc(C(=O)N[C@@H](CC(N)=O)C(=O)O)cc1 (stereo partly drawn) [Example 18, (S)-N-[4-[[2-(acelylainino)-6-amino-1-oxohexyl]amino]benzoyl]-L-α-asparagine]	90%
NC(CCCCNC(=O)OCc1ccccc1)C(=O)Nc1ccc(CC(=O)N[C@@H](CC(=O)O)C(=O)O)cc1 (some centres unmarked) [Example 20]	34%
